Data taken from publication PMC8815882, “Screening the pandemic response box identified benzimidazole carbamates, Olorofim and ravuconazole as promising drug candidates for the treatment of eumycetoma” (PLoS Neglected Tropical Diseases, 2022).
In brackets after ≈: the same amount, converted by molar mass. Where two headings read alike, the source gives them in different places.

How the values were obtained:
[1] = test system: M. pseudomycetomatis strain Mex2A; assay: CLSI M38-A2 based in vitro susceptibility screening at 25 μM; format: cell-based, Madurella pseudomycetomatis; settings: selected if >75% (resazurin) or >80% (XTT) fungal growth inhibited
M. mycetomatis MM55 = assay: IC50 determination, 2-fold dilution series 16 to 0.03125 μM; format: cell-based, Madurella mycetomatis; settings: for IC50 / IC90: Madurella mycetomatis
[2] = test system: ten different M. mycetomatis isolates; assay: MIC / MIC50 determination (XTT) in ten M. mycetomatis isolates; format: cell-based, Madurella mycetomatis; settings: Madurella mycetomatis
[3] = test system: M. mycetomatis genome strain MM55; assay: CLSI M38-A2 based in vitro susceptibility screening (XTT or resazurin), growth at fixed concentration; format: cell-based, Madurella mycetomatis; settings: for activity at 25 µM / activity at 100 µM: Madurella mycetomatis
[4] = test system: Me. romeroi strain CBS128765; assay: CLSI M38-A2 based in vitro susceptibility screening at 25 μM; format: cell-based, Medicopsis romeroi; settings: selected if >75% (resazurin) or >80% (XTT) fungal growth inhibited
[5] = test system: F. senegalensis strain CBS132257; assay: as above; format: cell-based, Falciformispora senegalensis; settings: selected if >75% (resazurin) or >80% (XTT) fungal growth inhibited
[6] = test system: M. tropicana strain CBS206.47; assay: as above; format: cell-based, Madurella tropicana; settings: selected if >75% (resazurin) or >80% (XTT) fungal growth inhibited
M. mycetomatis = assay: Drug static or cidal; format: cell-based, Madurella mycetomatis
Text: Supplement pntd.0010159.s001.xlsx, sheet "Pandemic Box Master sheet" | column: Drug static or cidal

[7] = MM55, Table 2, M. mycetomatis MM55, read-out: IC50
[8] = MM55, replicate 1, read-out: IC50 1
[9] = MM55, replicate 1, read-out: IC90 1
[10] = MM55, replicate 2, read-out: IC50 2
[11] = MM55, replicate 2, read-out: IC90 2
[12] = MM55, replicate 3, read-out: IC50 3
[13] = MM55, replicate 3, read-out: IC90 3
[14] = median MIC over ten M. mycetomatis isolates, no asterisk, read-out: MIC50
[15] = isolate CBS247.48, read-out: MIC CBS247.48
[16] = isolate MM55, read-out: MIC MM55
[17] = replicate A, read-out: Percentage survival at 25um, 25 um A
[18] = replicate B, read-out: Percentage survival at 25um, 25 uM B
[19] = replicate C, read-out: Percentage survival at 25um, 25 uM C
[20] = MM55, mean of replicates, read-out: IC50 mean
[21] = MM55, mean of replicates, read-out: IC90 mean
[22] = mean of replicates, read-out: Percentage survival at 25um, 25 uM mean
[23] = mean of replicates, read-out: Percentage survival at 100um, 100 uM mean
[24] = replicate 1, read-out: Percentage survival at 100um, 100 uM A
[25] = replicate 2, read-out: Percentage survival at 100um, 100 uM A
[26] = replicate 3, read-out: Percentage survival at 100um, 100 uM A
[27] = MM55, replicate 1, read-out: IC50 1 um
[28] = MM55, replicate 1, read-out: IC90 1 um
[29] = MM55, replicate 2, read-out: IC50 2 um
[30] = MM55, replicate 2, read-out: IC90 2 um
[31] = MM55, replicate 3, read-out: IC50 3 um
[32] = MM55, replicate 3, read-out: IC90 3 um
[33] = mean of three replicates, read-out: Percentage survival at 25um, 25 uM mean
[34] = first replicate column, read-out: Percentage survival at 100um, 100 uM A
[35] = mean of three replicates, read-out: Percentage survival at 100um, 100 uM mean
[36] = second replicate column, read-out: Percentage survival at 100um, 100 uM A
[37] = third replicate column, read-out: Percentage survival at 100um, 100 uM A

IC50 (M. mycetomatis MM55; [7]) [µM] | IC50 (M. mycetomatis MM55; [8]) [µM] | IC90 (M. mycetomatis MM55; [9]) [µM] | IC50 (M. mycetomatis MM55; [10]) [µM] | IC90 (M. mycetomatis MM55; [11]) [µM] | IC50 (M. mycetomatis MM55; [12]) [µM] | IC90 (M. mycetomatis MM55; [13]) [µM] | MIC50 [2, 14] [µM] | MIC [2, 15] [µM] | MIC [2, 16] [µM] | MIC ([2]; isolate P1, read-out: MIC P1) [µM] | MIC ([2]; isolate So1, read-out: MIC So1) [µM] | MIC ([2]; isolate i1, read-out: MIC i1) [µM] | MIC ([2]; isolate i11, read-out: MIC i11) [µM] | IC50 (M. mycetomatis MM55; [20]) [µM] | IC90 (M. mycetomatis MM55; [21]) [µM] | Compound | activity at 25 µM [3, 17] [%] | activity at 25 µM [3, 18] [%] | activity at 25 µM [3, 19] [%] | Drug static or cidal (M. mycetomatis) | further results
12.8 | 11.7 | 23.5 | 13.2 | 23.6 | 13.8 | 24.7 | 4 (≈ 1.85 µg/mL) | 8 (≈ 3.71 µg/mL) | 4 (≈ 1.85 µg/mL) | 16 (≈ 7.42 µg/mL) | 16 (≈ 7.42 µg/mL) | 4 (≈ 1.85 µg/mL) | 4 (≈ 1.85 µg/mL) |  |  | COc1cc(C)c2c(Oc3cccc(C(F)(F)F)c3)c(OC)cc(NC(C)CCCN)c2n1 (stereo not shown) [MMV000043, Tafenoquine, reference compound] | -2.31 | 0.422 | 4.25 |  | Inhibits growth of Madurella pseudomycetomatis at 25 μM [1]: inhibit the growth; Drug static or cidal (M. mycetomatis MM55): Cidal; IC50 (M. mycetomatis MM55; MM55, mean, read-out: IC50 mean): 12.9 µM; IC90 (M. mycetomatis MM55; MM55, read-out: IC90 mean): 23.9 µM; MIC50 ([2]; over the isolates tested, read-out: MIC50 mean): 4 µM (≈ 1.85 µg/mL); Inhibits growth of Madurella mycetomatis at 25 μM ([3]; 25 μM, selected if >75% (resazurin) or >80% (XTT) fungal growth inhibited): inhibit the growth; activity at 25 µM ([3]; mean, read-out: Percentage survival at 25um, 25 uM mean): 0.788%; activity at 100 µM ([3]; mean, read-out: Percentage survival at 100um, 100 uM mean): 22.7%; activity at 100 µM ([3]; replicate (first column), read-out: Percentage survival at 100um, 100 uM A): 53.1%; activity at 100 µM ([3]; replicate (second column), read-out: Percentage survival at 100um, 100 uM A): 6.69%; activity at 100 µM ([3]; replicate (third column), read-out: Percentage survival at 100um, 100 uM A): 8.3%; Inhibits growth of Medicopsis romeroi at 25 μM [4]: inhibit the growth; Inhibits growth of Falciformispora senegalensis at 25 μM [5]: inhibit the growth; Inhibits growth of Madurella tropicana at 25 μM [6]: inhibit the growth
8.21 | 2.8 | 13.2 | 9.6 | 21.1 | 12.2 | 21.8 | 16 (≈ 7.22 µg/mL) | > 16 | > 16 | > 16 | 16 (≈ 7.22 µg/mL) | 16 (≈ 7.22 µg/mL) | > 16 | 8.22 | 18.7 | CCN(CC)CCn1c(=N)n(CC(O)COc2ccc(Cl)cc2Cl)c2ccccc21 (stereo not shown) [MMV000725] | 3.92 | 1.56 | 2.57 | Cidal | MIC50 ([2]; ten isolates, read-out: MIC50 mean): < 16 µM; MIC ([2]; isolate MM14, read-out: MIC MM14): > 16 µM; MIC ([2]; isolate MM45, read-out: MIC MM45): > 16 µM; MIC ([2]; isolate ParijsAl1, read-out: MIC ParijsAl1): > 16 µM; MIC ([2]; isolate Peru72012, read-out: MIC Peru72012): > 16 µM; activity at 25 µM [3, 22]: 2.68%; activity at 100 µM [3, 23]: 4.47%; activity at 100 µM [3, 24]: 4.59%; activity at 100 µM [3, 25]: 3.57%; activity at 100 µM [3, 26]: 5.25%
 |  |  |  |  |  |  |  |  |  |  |  |  |  | > 25 | > 25 | Clc1ccc(Cn2c(CN3CCCC3)nc3ccccc32)cc1 [MMV002015] | 9.47 | -1.23 | 11.8 | Cidal | IC50 (M. mycetomatis MM55; [27]): > 25 µM; IC90 (M. mycetomatis MM55; [28]): > 25 µM; IC50 (M. mycetomatis MM55; [29]): > 25 µM; IC90 (M. mycetomatis MM55; [30]): > 25 µM; IC50 (M. mycetomatis MM55; [31]): > 25 µM; IC90 (M. mycetomatis MM55; [32]): > 25 µM; activity at 25 µM [3, 33]: 6.67%; activity at 100 µM [3, 34]: 3.95%; activity at 100 µM [3, 35]: 4.96%; activity at 100 µM [3, 36]: 6.49%; activity at 100 µM [3, 37]: 4.45%
 | 18.5 | > 25 | > 25 | > 25 | > 25 | > 25 |  |  |  |  |  |  |  | > 25 | > 25 | Cc1ccc(S(=O)(=O)Nc2cccc3cccnc23)cc1 [MMV233495] | 5.12 | -0.547 | 46.8 | Static | activity at 25 µM [3, 22]: 17.1%; activity at 100 µM [3, 23]: 31.3%; activity at 100 µM [3, 24]: -0.389%; activity at 100 µM [3, 25]: 38.9%; activity at 100 µM [3, 26]: 55.5%
 |  |  |  |  |  |  |  |  |  |  |  |  |  | > 25 | > 25 | Oc1cccc(C(Nc2nccs2)c2ccc3cccnc3c2O)c1 (stereo not shown) [MMV642550] | -5.33 | 6.92 | 2.03 | Cidal | IC50 (M. mycetomatis MM55; [27]): > 25 µM; IC90 (M. mycetomatis MM55; [28]): > 25 µM; IC50 (M. mycetomatis MM55; [29]): > 25 µM; IC90 (M. mycetomatis MM55; [30]): > 25 µM; IC50 (M. mycetomatis MM55; [31]): > 25 µM; IC90 (M. mycetomatis MM55; [32]): > 25 µM; activity at 25 µM [3, 33]: 1.21%; activity at 100 µM [3, 34]: 4.63%; activity at 100 µM [3, 35]: 8.03%; activity at 100 µM [3, 36]: 8.66%; activity at 100 µM [3, 37]: 10.8%
